Values of other authors as cited in EP1358311B1, “CLEANING COMPOSITIONS” (Unilever N.V., priority 2001, dated 2002).

Settings: for Water Solubility (g/100g): at 20°C, other common materials, listed by contrast

| Water Solubility (grams/100 grams water) (saturated solution in 100 grams of deionised water at 20°C, highly water-soluble materials) | SMILES | Water Solubility (g/100g) |
| --- | --- | --- |
| >100 grams/100 grams water | NC(N)=O [Urea] | – |
| – | O=P(O)(O)OP(=O)(O)OP(=O)(O)O [Sodium tripolyphosphate anhydrous] | 15 g/100g |
| – | O=BO[O-].[Na+] [Sodium perborate anhydrous] | 3.7 g/100g |
